The values that follow come from BindingDB's records for doi:10.1016/j.ejmech.2017.10.076 (Wayne State University, 2018).

In general, IC50 refers to the concentration that gives 50% inhibition.

Structures are written as SMILES.

For assay [1], the target named is T1, Histone deacetylase 8 (Homo sapiens, UniProt Q9BY41).
T1 sequence (Q9BY41 whole entry): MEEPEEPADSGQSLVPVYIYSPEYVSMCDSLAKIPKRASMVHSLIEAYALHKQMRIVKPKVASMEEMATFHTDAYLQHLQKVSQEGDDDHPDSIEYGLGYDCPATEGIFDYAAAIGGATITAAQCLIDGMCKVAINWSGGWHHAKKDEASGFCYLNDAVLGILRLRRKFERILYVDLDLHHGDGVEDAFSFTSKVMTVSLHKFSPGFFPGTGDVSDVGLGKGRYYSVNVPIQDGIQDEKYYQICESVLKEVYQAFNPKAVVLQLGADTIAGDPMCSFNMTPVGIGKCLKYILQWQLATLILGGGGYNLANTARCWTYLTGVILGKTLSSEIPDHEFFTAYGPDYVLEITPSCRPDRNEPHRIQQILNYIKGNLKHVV
Kind of assay: Inhibition of human recombinant full-length C-terminal His-tagged HDAC8 expressed in baculovirus infected Sf9 insect cell preincubated for 15 mins followed by HDAC-Glo substrate addition measured after 30 mins by fluorimetric method.

In assay [2] the target is T2, Histone deacetylase 6 (Homo sapiens, UniProt Q9UBN7).
T2 sequence (Q9UBN7 whole entry): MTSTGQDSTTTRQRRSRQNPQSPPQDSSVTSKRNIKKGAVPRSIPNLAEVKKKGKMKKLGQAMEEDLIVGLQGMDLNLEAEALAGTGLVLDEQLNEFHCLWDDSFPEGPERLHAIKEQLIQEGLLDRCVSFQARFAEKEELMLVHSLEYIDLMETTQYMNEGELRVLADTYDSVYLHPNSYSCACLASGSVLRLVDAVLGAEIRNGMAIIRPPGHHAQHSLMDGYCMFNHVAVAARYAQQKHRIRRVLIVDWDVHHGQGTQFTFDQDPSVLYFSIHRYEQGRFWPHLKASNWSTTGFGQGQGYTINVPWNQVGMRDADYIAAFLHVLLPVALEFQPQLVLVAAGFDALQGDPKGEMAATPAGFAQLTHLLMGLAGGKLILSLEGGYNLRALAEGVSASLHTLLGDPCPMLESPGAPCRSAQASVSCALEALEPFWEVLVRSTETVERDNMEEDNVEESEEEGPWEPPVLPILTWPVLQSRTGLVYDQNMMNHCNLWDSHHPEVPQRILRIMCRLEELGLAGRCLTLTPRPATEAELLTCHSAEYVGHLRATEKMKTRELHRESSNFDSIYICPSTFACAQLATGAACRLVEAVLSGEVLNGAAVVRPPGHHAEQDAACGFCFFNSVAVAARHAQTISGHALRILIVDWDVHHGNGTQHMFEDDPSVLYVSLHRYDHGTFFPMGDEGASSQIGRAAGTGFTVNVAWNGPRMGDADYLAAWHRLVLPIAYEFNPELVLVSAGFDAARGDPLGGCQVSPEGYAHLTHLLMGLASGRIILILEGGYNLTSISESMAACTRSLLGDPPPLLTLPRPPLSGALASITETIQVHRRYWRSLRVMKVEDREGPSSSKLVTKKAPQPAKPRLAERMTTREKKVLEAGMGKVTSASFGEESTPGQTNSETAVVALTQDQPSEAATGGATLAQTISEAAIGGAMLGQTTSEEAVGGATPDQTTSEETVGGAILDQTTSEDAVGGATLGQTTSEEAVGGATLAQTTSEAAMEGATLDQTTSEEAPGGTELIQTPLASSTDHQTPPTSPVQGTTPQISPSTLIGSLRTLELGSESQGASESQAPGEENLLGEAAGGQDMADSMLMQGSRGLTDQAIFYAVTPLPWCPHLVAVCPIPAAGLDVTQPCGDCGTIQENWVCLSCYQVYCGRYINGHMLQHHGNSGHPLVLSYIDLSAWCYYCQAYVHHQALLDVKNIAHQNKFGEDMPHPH
Nature of the assay: Inhibition of HDAC6 in human HeLa-S3 cell lysates preincubated for 15 mins followed by HDAC-Glo substrate addition measured after 30 to 40 mins by fluorimetric method.

For assay [3], the target named is Histone deacetylase 3 (Homo sapiens, UniProt O15379). Nature of the assay: Inhibition of HDAC3 in human HeLa-S3 cell lysates preincubated for 15 mins followed by HDAC-Glo substrate addition measured after 30 to 40 mins by fluorimetric method.
Chain of Histone deacetylase 3 (O15379 whole entry): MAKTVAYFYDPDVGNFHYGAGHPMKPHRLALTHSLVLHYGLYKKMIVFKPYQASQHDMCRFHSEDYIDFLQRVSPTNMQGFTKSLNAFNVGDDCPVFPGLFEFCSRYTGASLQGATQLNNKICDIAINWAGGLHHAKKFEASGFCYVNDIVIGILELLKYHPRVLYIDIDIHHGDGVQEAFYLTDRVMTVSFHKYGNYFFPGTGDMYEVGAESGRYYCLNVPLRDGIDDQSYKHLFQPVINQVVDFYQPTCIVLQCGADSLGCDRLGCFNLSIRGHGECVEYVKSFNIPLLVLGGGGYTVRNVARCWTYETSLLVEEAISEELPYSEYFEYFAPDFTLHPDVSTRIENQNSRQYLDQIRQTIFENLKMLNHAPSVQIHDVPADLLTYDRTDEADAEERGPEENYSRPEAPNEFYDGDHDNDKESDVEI
Assay [4] deals with Histone deacetylase 1 (Homo sapiens, UniProt Q13547). Kind of assay: Inhibition of HDAC1 in human HeLa-S3 cell lysates preincubated for 15 mins followed by HDAC-Glo substrate addition measured after 30 to 40 mins by fluorimetric method.
Chain of Histone deacetylase 1 (Q13547 whole entry): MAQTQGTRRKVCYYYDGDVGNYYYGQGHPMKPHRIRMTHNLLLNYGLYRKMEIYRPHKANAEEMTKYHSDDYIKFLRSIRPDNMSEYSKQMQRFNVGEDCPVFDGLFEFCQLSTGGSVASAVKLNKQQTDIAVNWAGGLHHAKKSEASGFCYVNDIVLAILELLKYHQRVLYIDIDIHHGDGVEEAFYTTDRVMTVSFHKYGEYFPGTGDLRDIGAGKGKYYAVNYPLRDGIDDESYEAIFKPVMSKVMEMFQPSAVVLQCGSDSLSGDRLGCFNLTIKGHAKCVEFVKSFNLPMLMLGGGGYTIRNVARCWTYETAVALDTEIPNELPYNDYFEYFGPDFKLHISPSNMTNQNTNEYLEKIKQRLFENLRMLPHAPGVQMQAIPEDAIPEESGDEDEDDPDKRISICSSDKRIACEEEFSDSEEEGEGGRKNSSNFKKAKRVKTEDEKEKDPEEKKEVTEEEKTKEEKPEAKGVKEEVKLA

Consider `O=C(CCC(CCCC(=O)Nc1ccccc1)c1ccccc1)NO` (centres undefined), for which the IC50 is 0.29 µM in assay [1], 0.11 µM in assay [2], 23 µM in assay [3] and 11 µM in assay [4].
